Tests used:
mouse model of NDI = experiment: Mouse model of NDI induced with V2R antagonist OPC; format: in vivo
Description: Mice were placed in metabolic cages for assessment of daily water intake and urine output. (A) daily water intake (n=4 mice per group). (B) Daily urine output (n=4 mice per group). (C) Urine osmolality (n=4 mice per group). (D) Urinary sPRR excretion (n=4 mice per group). Data are shown as mean±SE. In A-C, #P<0.05 vs. OPC alone; in D*P<0.05 vs. control. (E) Schematic illustration of the mechanism of action of sPRR. In the lumen of the distal nephron, sPRR binds FZD8 in a receptor complex on the apical membrane of principal cells, resulting in the activation of β-catenin, which promotes cAMP accumulation, ultimately leading to increased AQP2 transcription and enhanced urine concentration.
In support of this notion, it has been shown that exposure of the CD cells to AVP stimulates the release of sPRR. FIG. 8E provides a schematic illustration of the mechanism of action of sPRR in the CD principal cells.
Urinary or medium sPRR was determined using a commercially sPRR enzyme immunoassay (EIA) kit (catalog no. JP27782; Immuno-Biological Laboratories) according to the manufacturer's instructions.

Sprague-Dawley (SD) rats = experiment: Water balance and renal AQP2 in SD rats, basal and water deprivation; format: in vivo, rat
Procedure: FIGS. 6A-6H show a role of the Wnt/β-catenin pathway in urine-concentrating capability in rats. SD Rats were administered vehicle, OMP, or XAV and were placed in metabolic cages for assessment of the state of water metabolism at basal condition (A-C) or after 24-h WD (D-H) (n=5 rats per group). At basal the condition, water intake (A), urine volume (B), and urine osmolality (C) were determined. (D-F) During 24-h WD, urine volume (D), urine osmolality (E), and body-weight (BW) changes (F) were monitored. (G and H) At the end of the experiment plasma osmolality (G) and Hct (H) were measured. *P<0.05 vs. control; #P<0.05 vs. WD alone.
FIGS. 7A-7F show an in vivo role of the Wnt/β-catenin pathway in the regulation of renal AQP2 expression during antidiuresis in rats. (A and B) To assess renal β-catenin activation by WD, the nuclear fraction of renal cortex (n=4 rats per group) (A) and the inner medulla (n=4 rats per group) (B) from control and dehydrated rats were subjected to immunoblotting analysis of β-catenin. (C-F) Immunoblotting analysis of AQP2 expression was performed on the renal cortex and the inner medulla of rats treated with vehicle or WD with (C) or without (D) OMP or with (E) or without (F) XAV (n=5 rats per group). Data are shown as mean±SE; *P<0.05 vs. control; #P<0.05 vs. WD. CO, cortex; IM, inner medulla.
To probe the in vivo role of β-catenin signaling in fluid homeostasis, OMP and XAV were administered to Sprague-Dawley (SD) rats under basal conditions and during […] water deprivation (WD) and evaluated their impact on water balance.
Renal tissues were lysed and subsequently sonicated. Protein concentrations were determined using Coomassie reagent. Forty micrograms of protein from each sample were denatured in boiling water, separated by SDS/PAGE, and transferred onto nitrocellulose membranes. Blots were blocked 1 h with 5% nonfat dry milk in Tris-buffered saline (TBS), followed by overnight incubation with primary antibody. After washing with TBS, blots were incubated with goat anti-rabbit/mouse HRP-conjugated secondary antibody and visualized using ECL. The blots were quantitated by using Image-Pro Plus (Media Cybernetics). The primary antibodies were goat anti-AQP2 antibody, rabbit anti-PRR-N antibody, and rabbit anti-FZD8 antibody (all from Santa Cruz), rabbit anti-V2R antibody (Abcam), and goat anti-β-catenin antibody (Novus).

Wnt/β-catenin pathway = experiment: Acute and chronic responses to AVP (cAMP, AQP2) in primary rat IMCD cells; format: cell-based; settings: XAV pretreatment 1 h
Procedure: FIGS. 5A-5F show a distinct role of the Wnt/β-catenin pathway in the acute and chronic responses to AVP in primary rat IMCD cells. The IMCD cells were pretreated for 1 h with XAV and were treated for 30 min or 24 h with 10 nM AVP. (A) At 30 min of AVP treatment, the medium was assayed for cAMP using ELISA (n=6 per group). (B and C) Membrane fraction (n=6 per group) (B) and cytosolic fraction (n=6 per group) (C) were subjected to immunoblotting analysis of AQP2. (D-F) At 24 h, medium cAMP was determined (n=6 per group) (D), whole-cell lysates were subjected to immunoblotting analysis of AQP2 (n=6 per group) (E), and total RNA was subjected to quantitative RT-PCR analysis of AQP2 mRNA (n=4 per group) (F). Data are shown as mean±SE; *P<0.05 vs. control; #P<0.05 vs. AVP alone.
For sPRR signaling studies, primary IMCD cells were prepared from 4-wk-old SD rats as previously described (35). The cells were grown in Transwell plates (catalog no. 29442-074; VWR International) with DMEM/F-12 medium containing 10% (vol/vol) FBS, 0.5 μM 8-Br-cAMP, 130 mM NaCl, and 80 mM urea. […] At the end of the experiments, the medium was collected for biochemical assays.
The membrane and cytosolic fractions of proteins were extracted using a kit according to the manufacturer's instructions (catalog no. BSP002; Bio Basic Inc.).

AQP2 = AQP2 expression in primary rat IMCD cells (quantitative RT-PCR, immunoblotting); format: cell-based; settings: inhibitor 10 μM pretreatment 1 h, then 10 nM sPRR-His 24 h

Row | SMILES | water intake, urine output, urine osmolality (mouse model of NDI; C57/BL6 mice, OPC via gavage 30 mg·kg^−1·d^−1 for 3 d) | urinary sPRR excretion (mouse model of NDI; OPC-treated mice) | WD-induced increase of AQP2 protein abundance in renal cortex and inner medulla (Sprague-Dawley (SD) rats; WD, immunoblotting) | water balance (urine volume, water intake, urine osmolality) (Sprague-Dawley (SD) rats; basal conditions, administration over 48 h) | plasma osmolality and hematocrit (Hct) (Sprague-Dawley (SD) rats; during 48-h WD) | urine osmolality (Sprague-Dawley (SD) rats; during 48-h WD) | urine volume (Sprague-Dawley (SD) rats; during 48-h WD) | weight loss (Sprague-Dawley (SD) rats; during 48-h WD) | rapid rise of cAMP and redistribution of AQP2 from the cytosol to the membrane in response to AVP (Wnt/β-catenin pathway; 30-min exposure to 10 nM AVP) | AVP-induced increases in cAMP level, total protein abundance and mRNA expression of AQP2 (Wnt/β-catenin pathway; 24 h 10 nM AVP) | sPRR-His-induced AQP2 protein expression, effect of inhibitor (AQP2)
1 | Cc1ccccc1C(=O)Nc1ccc(C(=O)N2CCCC(N(C)C)c3ccccc32)cc1 (centres unmarked) [OPC] | polydipsia, polyuria, and hypoosmotic urine | suppressed significantly | – | – | – | – | – | – | – | – | –
2 | Oc1nc(-c2ccc(C(F)(F)F)cc2)nc2c1CSCC2 [XAV939] | – | – | attenuated significantly | polyuria, polydipsia, and hypoosmotic urine | greater increases | decreased | increased | exaggerated | unaffected | effectively attenuated | blunted

Source: patent publication US11911442B2, “Use of soluble pro(renin) receptor to treat metabolic disorders and related conditions” (priority 2017, dated 2024)
